Results reported in patent US20200056157A1, “LIVER ORGANOID DISEASE MODELS AND METHODS OF MAKING AND USING SAME” (Children's Hospital Medical Center, priority 2016, published 2020).
Values belong to the compound of their own block, whether it stands above or below them.

Columns and labels:
[1] = tested on: human liver organoid (HLO); assay: Lipids live-cell imaging (BODIPY, membrane dye) of FFA treated HLO; type: cell-based; conditions: for effectiveness in inducing lipid accumulation among FFAs (OA, LA, PA, SA): 800 μM, 3 days after FFA exposure, BODIPY
From the text: Currently, free fatty acids (FFA) are widely used as an initiating factor to establish an in vitro lipotoxic hepatocyte model; however, fat accumulation is the only phenotype (Kanuri and Bergheim, 2013). […] Given the presence of hepatocyte-, stellate- and Kupffer-like cells with lipid metabolism function-associated genes indicated by global transcriptome analysis, Applicant hypothesized that FFA exposure naturally triggers an inflammation response and resulting fibrotic response in HLO. To test this hypothesis, Applicant treated HLO for 3 to 5 days with FFA. […] To first compare the effect of multiple FFAs including oleic acid (OA, 18:1 n9), linoleic acid (LA, 18:2), palmitic acid (PA, 16:0), and stearic acid (SA, 18:0) on lipids accumulation, live-cell imaging was performed with lipid dye BODIPY at 3 days after the FFA exposure. […] Considering that OA triggers massive lipid accumulation, the concentration of OA was varied (0, 200, 400, and 800 μM) to trigger inflammatory reaction in sHLO. […] In addition to increase in lipid accumulation, the size of lipid droplets was enlarged (FIG. 4, B). Hepatocyte ballooning (enlargement) was one of the pathological grading indicators to determine the nonalcoholic steatohepatitis (NASH) activity (NAS scoring), which was confirmed in 800 μM OA treated sHLO by live imaging of cellular membrane (FIG., 4B). Triglycerides, a main constituent of lipids accumulated in the liver, were also detected in 800 μM treated sHLO, but not in untreated sHLO (FIG. 4, D). […] As FIG. 9 indicates, neither E-cad positive nor negative cells derived spheroids produced P3NP and IL-6 secreted production and overexpressed the gene expression of inflammatory markers.
(§1) Phagocyte, lipids, ROS live-cell imaging. After being cultured in an ultra-low attachment 6 multi-well plate, 5-10 HLO were picked up and seeded in a Microslide 8 Well Glass Bottom plate (Ibidi, WI, USA) and subjected to live-cell staining. The following antibodies were used: pHrodo® Red S. aureus Bioparticles® Conjugate for Phagocyte activity (Thermo Fisher Scientific Inc.), BODIPY® 493/503 for lipids (Thermo Fisher Scientific Inc.), Di-8-ANEPPS for membrane (Thermo Fisher Scientific Inc.), and CellROX green reagent for ROS detection (Thermo Fisher Scientific Inc.). […] The final lipid droplet volume was calculated by IMARIS8 and normalized by each organoid size. Significance testing for lipid droplet volume and ROS production (%) was conducted by Student's t-test.
LPS and FFA exposure and OCA and FGF19 treatment. 20-30 HLO, which had been isolated from Matrigel and washed by 1×PBS, were divided into each condition and cultured on an ultra-low attachment 6 multi-well plates (Corning). HLO were cultured with LPS (Sigma), OA (Sigma), LA (Sigma), SA (Sigma), or PA (Sigma) and collected at day 1 and 3 (for LPS HLO) and at day 3 and 5 (for OA) after the culture. To test the inhibitory effect of OCA (INT-747, MedChem Express, NJ, USA) and human FGF19 recombinant (Sigma) on HLO, 20-30 HLO were cultured in HCM media in the presence or absence of oleic acid (800 μM), and 1 μM OCA and 40 ng/ml FGF19 were added into 800 μM OA condition. HLO were collected at day 3 for lipids live-cell imaging and at day 5 for stiffness measurement.

[2] = tested on: human liver organoid (HLO); assay: Triglyceride assay; type: cell-based; conditions: 800 μM OA, 3 days
Experimental: Triglyceride assay. For quantitative determination of triglycerides, HLO were isolated from one Matrigel drop and divided into HCM media in the presence or absence of oleic acid (800 μM). They were cultured on an ultra-Low attachment 6 multi-well plate for three days. Quantitative estimation of hepatic triglyceride accumulation was performed by an enzymatic assay of triglyceride mass using the EnzyChrom Triglyceride assay kit (Bioassay Systems, CA, USA).

IL-6 = IL-6 ELISA of HLO culture supernatant; type: cell-based, human; conditions: 800 μM OA treated sHLO culture media
Experimental: (§2) Albumin, IL-6, and P3NP ELISA. To measure albumin secretion level of HLO, 200 μL of culture supernatant was collected from HLO embedded in Matrigel. For IL-6 and P3NP, 20-30 organoids were seeded and cultured on an ultra-low attachment multiwell plates 96 well plate (Corning). To define the exact number of organoids in each well and lastly normalize the secreted level for IL-6 and P3NP by the number, the organoids were captured on The KEYENCE BZ-X710 Fluorescence Microscope. The culture supernatants were collected at 24 hrs (for albumin), 96 hrs (for IL-6) and 120 hrs (P3NP) time points after the culture and stored at −80° C. until use. The supernatant was centrifuged at 1,500 rpm for 3 min and to pellet debris, and the resulting supernatant was assayed with Human Albumin ELISA Quantitation Set (Bethyl Laboratories, Inc., TX, USA), Human IL-6 ELISA Kit (Biolegend, CA, USA), and Human N-terminal procollagen III propeptide, PIIINP ELISA Kit (My BioSource, CA, USA) according to the manufacturer's instructions. Significance testing was conducted by Student's t-test.

IL-8 = assay: RT-qPCR of pro-inflammatory cytokine IL-8 in HLO; type: cell-based, human; conditions: 200 μM or 800 μM OA, normalized by 18S
Experimental: (§3) RNA isolation, RT-qPCR. RNA was isolated using the RNeasy mini kit (Qiagen, Hilden, Germany). Reverse transcription was carried out using the SuperScriptIII First-Strand Synthesis System for RT-PCR (Invitrogen, CA, USA) according to manufacturer's protocol. qPCR was carried out using TaqMan gene expression master mix (Applied Biosystems) on a QuantStudio 3 Real-Time PCR System (Thermo Fisher Scientific Inc.). All primers and probe information for each target gene was obtained from the Universal ProbeLibrary Assay Design Center (https://qpcr.probefinder.com/organism.jsp). Significance testing was conducted by Student's t-test.

TNF-alpha = assay: RT-qPCR of pro-inflammatory cytokine TNF-alpha in HLO; type: cell-based, human; conditions: 200 μM or 800 μM OA, normalized by 18S
Experimental: as §3

THP-1 = THP-1 cell migration assay with HLO conditioned media; type: cell-based, human; conditions: OA-treated sHLO conditioned media (400, 800 μM OA), 24 hrs in transwells
Experimental: THP-1 cell migration assay. THP-1 cell, which was gifted from T. Suzuki, was maintained in Advanced DMEM/F12 (Thermo Fisher Scientific Inc.) containing 10% FBS. THP-1 floating cells were collected, and 200,000 cells were added with serum-free Advanced DMEM/F12 to the membrane chamber of the CytoSelect™ 96-Well Cell Migration Assay (5 μm, Fluorometric Format; Cell Biolabs, CA, USA). 10-20 HLO were cultured in HCM media including 0, 400, 800 uM OA with an ultra-low attachment 96 multi-well plate (Corning) for three days. To define the exact number of organoids in each well and lastly normalize the final migrated cells by the number, the organoids were captured on The KEYENCE BZ-X710 Fluorescence Microscope. 150 μL of culture supernatant of HLO was collected and added to the feeder tray of the kit. The kit was incubated at 37° C. for 24 h in a 5% CO2 cell culture incubator. Cells that had migrated were counted using Countess II FL Automated Cell Counter (Thermo Fisher Scientific Inc.). Significance testing was conducted by Student's t-test.

P3NP = P3NP ELISA of HLO culture supernatant; type: cell-based, human; conditions: 800 μM OA, day 5
Experimental: as §2

[3] = tested on: human liver organoid (HLO); assay: HLO stiffness measurement by AFM; type: cell-based
From the text: Applicant's preliminary qualitative analysis of smooth muscle actin immunostaining indicates dose dependent fibrosis progression by OA exposure (FIG. 2, H, I, and J). To gain more quantitative insights in a screenable format, Applicant thus assessed in the living state whether HLO fibrosis could increase the stiffness in a dose dependent fashion using micro-indentation with Atomic Force Microscopy (AFM). […] The Emedian values were 1.2 kPa, 1.6 kPa, 2.4 kPa and 2.8 kPa for 0, 200, 400, and 800 μM OA-treated organoids, respectively. Furthermore, difference between 90th percentile and 10th percentile (ΔP90-10) was 3.2 kPa for untreated organoids and 7.0 kPa for 800 μM OA-treated organoids was observed.
HLO stiffness measurement by AFM. HLOs treated with […] were used for stiffness measurement with a AFM (NanoWizard IV, JPK Instruments, Germany). The AFM head with a silicon nitride cantilever (CSC37, k=0.3 N/m, MikroMasch, Bulgaria) was mounted on a fluorescence stereo microscope (M205 FA, Leica, Germany) coupled with a Z-axis piezo stage (JPK CellHesion module, JPK Instruments, Germany), which allows the indentation measurement up to the depth of ˜100 μm. As a substrate for organoids, a fibronectin-coated dish was used. The tissue culture dish (p=34 mm, TPP Techno Plastic Products, Switzerland) was first incubated with a 1 μg/mL fibronectin solution (Sigma)) at 4° C. for overnight. Then, the tissue culture dish was washed twice by distilled water and dried for 1 hour. Thereafter, HLOs incubated with […] were deposited to the fibronectin-coated dish and incubated for 1 hour at 37° C. The sample dish was then placed onto the AFM stage, and force-distance curves in a 14×14 matrix in a 25×25 μm square were measured from each HLO. Finally, Young's moduli (E, Pa) of HLO were determined by fitting the obtained force-distance curves with the modified Hertz model (Sneddon, 1965). Dunn-Holland-Wolfe test was performed for significance testings.

[4] = tested on: human liver organoid (HLO); assay: Masson trichrome stain of HLO; type: cell-based
Experimental: To further determine whether HLO progresses towards fibrosis-like condition, Applicant performed Masson trichrome stain on sHLO and cHLO. […] Moreover, ELISA of […] was also measured at day 5 of OA exposure. […] secretion was increased 2.8-fold in the culture media of 800 μM OA treated HLO when compared with the untreated (FIG. 4, J).

[5] = tested on: human iPSC-liver organoid; assay: RA-based liver organoid differentiation (organoid number, size, luminal structure); type: cell-based; conditions: 4 days RA
From the text: To elucidate whether RA signaling has an impact on determining the lineage differentiation towards stromal cells, Applicant established a liver organoid model from human iPSCs by transient induction of RA. Applicant initially differentiated iPSCs to foregut spheroids through definitive endoderm (DE) specification as previously described (Spence et al., 2011). The foregut spheroids were mixed with the attached cells grown in the same well, and the mixture was embedded in Matrigel. […] The number of organoids was increased 1.8-fold in RA treated wells compared to untreated and the size was increased 1.5-fold after RA treatment (FIG. 1, B, C, and D). […] Of note, albumin secretion was maintained more than 40 days after day 20 when albumin was first detected (data not shown).
HLO induction. At day 7, spheroids and attached cells are gently pipetted to be delaminated from dishes. They were centrifuged at 800 rpm for 3 minutes, embedded in a 100% Matrigel drop on the dishes in Advanced DMEM/F12 with B27, N2 and 2 uM retinoic acid (RA; Sigma, MO, USA) after removing supernatant, and cultured for 4 days. After RA treatment, spheroids embedded in the Matrigel drop were cultured in Hepatocytes Culture Medium (HCM; Lonza, MD, USA) with 10 ng/mL hepatocyte growth factor (HGF; PeproTech, NJ, USA), 0.1 uM Dexamethasone (Dex; Sigma) and 20 ng/mL Oncostatin M (OSM; R&D Systems). Cultures for HLO induction were maintained at 37° C. in 5% CO2 with 95% air and the medium was replaced every 2-3 days. To analyze HLO (day 20-30), organoids were isolated from Matrigel by scratching and pipetting.

[6] = tested on: human iPSC-liver organoid; assay: Albumin ELISA of organoid culture supernatant; type: cell-based; conditions: 4 days RA; supernatant collected in 24 hrs
Experimental: as §2

liver organoids = assay: ROS live-cell imaging of liver organoids; type: cell-based, human
From the text: as §1

Compound: CCCCCCCCCCCCCCCCCC(=O)O [SA, stearic acid]
effectiveness in inducing lipid accumulation among FFAs (OA, LA, PA, SA) [1]: least effective

hepatocyte ballooning (enlargement) ([1]; 800 μM OA treated sHLO, live imaging of cellular membrane): confirmed
Compound: CCCCCCCC/C=C\CCCCCCCC(=O)O [OA, oleic acid]
lipid accumulation, increase in sHLO ([1]; 0, 200, 400, 800 μM OA, 3 days, dose dependent): up to 18 fold | effectiveness in inducing lipid accumulation among FFAs (OA, LA, PA, SA) [1]: most effective | size of lipid droplets ([1]; OA treated sHLO, 3 days): enlarged | triglycerides [2]: detected | IL-6 secretion compared to the untreated (IL-6): 2.2 fold | IL-8 gene expression increase (IL-8): 10 fold | TNF-alpha gene expression increase (TNF-alpha): 2 fold | THP-1 migration cells, increase (THP-1): up to 2 fold | P3NP secretion compared with the untreated (P3NP): 2.8 fold | Young's modulus, Emedian ([3]; 200 μM OA): 1.6 kPa | Young's modulus, Emedian ([3]; 400 μM OA): 2.4 kPa | Young's modulus, Emedian ([3]; 800 μM OA): 2.8 kPa | difference between 90th percentile and 10th percentile (ΔP90-10) of Young's modulus ([3]; 800 μM OA): 7.0 kPa | trichrome positive HLO ([4]; cHLO (OA 5 days)): significantly increased | trichrome positive HLO ([4]; sHLO (OA 3 days)): not observed

Compound: CC1=C(/C=C/C(C)=C/C=C/C(C)=C/C(=O)O)C(C)(C)CCC1 [RA, retinoic acid]
number of organoids, increase compared to untreated ([5]; day 20): 1.8 fold | organoid size, increase after treatment ([5]; day 20): 1.5 fold | organoids with internal luminal structure ([5]; day 25): 95% | albumin secretion [6]: 3.0 to 6.5 µg/mL

Compound: Oc1ccc(C=Cc2cc(O)cc(O)c2)cc1 [resveratrol]
effect on ROS production of liver organoids (liver organoids): No effectiveness
